Data from the SangsterLogP compilation.

Test: method code SF-AS, from PMID: 1438511

| Structure (SMILES) | logD (pH 8.0) | logP |
| --- | --- | --- |
| c1ccc(OCc2cccc(CN3CCCOC3)c2)cc1 | 2.75 |  |
| c1ccc(OCc2cccc(CN3CCCCCC3)c2)cc1 |  | 2.87 |
